Experimental data from patent US20140171455A1, “Reduction of Microglia-Mediated Neurotoxicity by Kv1.3 Inhibition” (The Regents of the University of California, priority 2011, published 2014).
Like-named read-outs stand apart in the source and are kept apart here. Bridge positions count the residues as written; N and C are the ends. Peptide text beside a SMILES is read from it.

Key:
[1] = target: T1, Kv1.3 (Mus musculus, UniProt P16390); test: Whole-cell voltage-clamp of Kv currents in cultured stimulated microglia; type: cell-based; settings: read-out: IC50 on microglial Kv current
T1 construct: pharmacological characterization of currents from cultured microglia stimulated for 48 hours with AbO or LPS; endogenous in cells; host or cells: primary microglia cultured from newborn C57Bl/6 mice, stimulated 48 h with AbO or LPS
T1 sequence (P16390 whole entry): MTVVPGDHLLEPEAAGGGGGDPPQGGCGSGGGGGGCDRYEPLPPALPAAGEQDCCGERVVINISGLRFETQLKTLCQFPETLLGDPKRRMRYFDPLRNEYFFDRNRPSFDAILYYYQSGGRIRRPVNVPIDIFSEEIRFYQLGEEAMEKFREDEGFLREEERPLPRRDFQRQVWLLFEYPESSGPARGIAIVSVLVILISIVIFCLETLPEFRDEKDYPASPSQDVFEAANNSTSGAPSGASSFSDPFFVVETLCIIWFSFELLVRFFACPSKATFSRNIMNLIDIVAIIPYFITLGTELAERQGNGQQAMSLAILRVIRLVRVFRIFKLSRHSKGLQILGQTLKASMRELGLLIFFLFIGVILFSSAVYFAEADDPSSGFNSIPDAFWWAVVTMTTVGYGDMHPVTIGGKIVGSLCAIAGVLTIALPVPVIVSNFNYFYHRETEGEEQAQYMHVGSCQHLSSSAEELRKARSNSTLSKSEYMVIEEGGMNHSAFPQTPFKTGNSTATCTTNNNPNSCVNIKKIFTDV
Protocol: In order to determine if Kv1.3 is indeed functionally expressed in mouse microglia Applicants performed electrophysiological experiments on cultured mouse microglia in the whole-cell mode of the patch-clamp technique. Kv currents were elicited with 500 millisecond pulses from a holding-potential of −100 mV to +40 mV applied every 45 sec.
Microglia cultured from newborn C57B1/6 mice were treated with lipopolysaccharides (LPS) or AbO for 24 or 48 hrs. […] Kv currents were elicited by 500 ms voltage steps from −80 to 40 mV (representative traces on right).

[2] = system: rat hippocampal slices (CA1 LTP); test: CA1 LTP induction in rat hippocampal slices with AbO; type: cell-based; settings: PAP-1 10 μM pretreatment 30 min prior to AbO 50 nM; 45 min after HFS
Protocol: FIG. 7 summarizes an experiment wherein, under control conditions, CA1 LTP was induced by high frequency stimulation (HFS), which consists of 4 trans of 100Hz basal intensity stimulation lasting for 1 s per train. In control (vehicle only) group, following the HFS, the amplitude or slope of fEPSP was increased to 209±28% of baseline at 45 min after HFS. The bath application of AbO (50 nM) for 10 min blocked the induction of LTP (126±6.7% of control). […] The mean of five consecutive measurements at the end of LTP induction (45 min) was normalized to the baseline (100%) which was the mean of five consecutive measurements just before the HFS.

[3] = system: hippocampal slices; test: Hippocampal slices: AbetaO-induced microglia activation and neuronal damage; type: cell-based, mouse; settings: AβO 20 nM, PAP-1 1 μM
Text: Three consecutive hippocampal slices were obtained from mouse brain and from mice received the same indicated treatment. One slice was used for CD11b staining (green) for activated microglia (slices outlined by Hoechst stain), one for propidium iodide (PI) uptake, and one for Fluoro-Jade C stain for neuronal damage. DG: dentate gyrus.

[4] = system: cultured mouse microglia; test: Abeta-induced activation of cultured mouse microglia (proliferation, morphology, NFkB, NO, TNF-alpha); type: cell-based
Protocol: FIGS. 1A and 1B show data regarding AβO-induced NFκ-B and NO, respectively.
Two (2) hours after administration of the indicated treatment, the mouse brains were sectioned and immunostained with an antibody for p65 of NFκB to mark cells with NFκB activation. Numbers of p65-positive cells per 200 DAPI-labeled cells were determined.
(§1) Measurements were made in the conditioned medium and normalized to the amount of total cellular protein in each culture. n=4-6, *p<0.001 compared with control, **p<0.001 compared with the “AβO” group. […] NO released by AβO-treated microglia is the major soluble mediator of AβO-induced microglial neurotoxicity.

[5] = system: AβO-stimulated cultured microglia; test: AbetaO-induced microglial neurotoxicity (cultured microglia); type: cell-based, mouse; settings: co-treating AβO-stimulated cultured microglia; AβO 20 nM, PAP-1 1 μM
Text: as §1

[6] = rhesus macaques; cited from earlier work
[7] = rodents or primates; cited from earlier work
[8] = rats; cited from earlier work
[9] = cited from earlier work
[10] = system: microglia; test: Abeta uptake (phagocytosis) assay in microglia by flow cytometry; type: cell-based; settings: 2 hrs pre-treatment
Text: Using an Aβ uptake assay, Applicants pretreated microglia with either control (vehicle only), anti-SRA (scavenger receptor A) antibody, doxycycline or PAP-1. FIG. 2 is a bar graph showing cell-associated fluorescence as measured by flow cytometry after 2 hrs of such pre-treatment. (n=3, *p<0.01 and **p<0.001 compared with control).

| SMILES | IC50 ([1]; cultured microglia stimulated for 48 hours with AbO) | IC50 ([1]; cultured microglia stimulated for 48 hours with LPS) | inhibition by AbO of the induction of CA1 LTP [2] | AβO-induced microglia activation (CD11b staining) [3] | AβO-induced neuronal damage (propidium iodide uptake and Fluoro-Jade C staining) [3] | signs of microglia activation induced by AβO (proliferation, morphological transformation, NFκ-B activation, NO production) ([4]; cultured mouse microglia, AβO 20 nM, PAP-1 1 μM) | increased microglia release of tumor necrosis factor-α, NFκ-B activation and NO production induced by fAβ stimulation ([4]; fAβ stimulation) | AβO-induced microglial neurotoxicity [5] | half-life [6] | long-term toxicity [7] | half-life [8] | oral bioavailability ([9]; in vivo, po) | brain concentrations versus plasma concentrations (crosses the blood brain barrier) ([9]; pharmacokinetic studies) | Aβ cell-associated fluorescence (ability of microglia to phagocytose Aβ) [10] |
| --- | --- | --- | --- | --- | --- | --- | --- | --- | --- | --- | --- | --- | --- | --- |
| CC[C@H](C)[C@H](NC(=O)[C@@H](N)[C@@H](C)O)C(=O)N[C@H](C(=O)N[C@@H](CC(N)=O)C(=O)N[C@H](C(=O)N[C@@H](CCCCN)C(=O)N[C@H]1CSSC[C@@H]2NC(=O)[C@H](CCCCN)NC(=O)[C@H](C)NC(=O)CNC(=O)[C@H](C)NC(=O)[C@H](CO)NC(=O)[C@H](CCC(N)=O)NC(=O)CNC(=O)[C@H](Cc3ccccc3)NC(=O)[C@H](CCC(N)=O)NC(=O)[C@H](C)NC(=O)[C@H](CCCCN)NC(=O)[C@@H]3CSSC[C@@H](C(=O)N[C@@H](Cc4ccc(O)cc4)C(=O)N4CCC[C@H]4C(=O)N[C@@H](Cc4c[nH]cn4)C(=O)O)NC(=O)[C@H](CCCCN)NC(=O)[C@H](CSSC[C@H](NC(=O)[C@H](CCC(N)=O)NC(=O)[C@H](CCCCN)NC(=O)[C@@H]4CCCN4C(=O)[C@H](CO)NC(=O)[C@H]([C@@H](C)O)NC1=O)C(=O)N[C@@H](CC(C)C)C(=O)N1CCC[C@H]1C(=O)N1CCC[C@H]1C(=O)N3)NC(=O)[C@H](CCCCN)NC(=O)CNC(=O)[C@H](CC(N)=O)NC(=O)[C@H](CCSC)NC2=O)C(C)C)[C@@H](C)CC [MgTX] (H-TIINVKCTSPKQCLPPCKAQFGQSAGAKCMNGKCKCYPH-OH; disulfide 7-29, 13-34, 17-36 (inferred); N-terminus and C-terminus assumed) | 0.0797 nM | 0.0789 nM |  |  |  |  |  |  |  |  |  |  |  |  |
| O=c1ccc2c(OCCCCOc3ccccc3)c3ccoc3cc2o1 [PAP-1, 5-(4-Phenoxybutoxy)psoralen] |  |  | prevented | substantially reduced | blocked | inhibited | blocked | blocked | 6.7 h | has not exhibited long-term toxicity | 3 h | orally bioavailable | equal or slightly exceed plasma-concentrations | did not impair |
